Assay results taken from patent US20250230155A1 (Vanderbilt University, priority 2021, published 2025).

Target: T1, human mAChR M4 (Homo sapiens, UniProt P08173)
T1 construct: expressed in transfected cells
T1 sequence (P08173 1-479): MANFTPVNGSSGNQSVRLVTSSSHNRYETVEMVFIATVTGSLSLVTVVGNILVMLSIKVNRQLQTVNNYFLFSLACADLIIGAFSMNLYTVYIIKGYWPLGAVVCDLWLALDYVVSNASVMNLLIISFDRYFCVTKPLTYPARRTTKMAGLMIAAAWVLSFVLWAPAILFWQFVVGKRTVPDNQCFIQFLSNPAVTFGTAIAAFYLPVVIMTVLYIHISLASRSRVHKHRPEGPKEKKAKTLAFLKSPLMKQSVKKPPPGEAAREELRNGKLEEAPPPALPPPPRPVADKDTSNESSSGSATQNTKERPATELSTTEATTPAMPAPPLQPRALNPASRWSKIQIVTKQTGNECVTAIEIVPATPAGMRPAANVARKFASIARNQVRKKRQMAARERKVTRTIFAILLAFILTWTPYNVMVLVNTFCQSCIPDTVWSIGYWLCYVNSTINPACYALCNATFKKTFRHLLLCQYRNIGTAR
Assay: mAChR M4 cell-based functional assay (calcium mobilization, CHO-K1 hM4-Gqi5 cells)
Details: for Emax at 30 µM: CHO-K1, % ACh maximum at 30 μM, human M4; for EC50: positive allosteric modulator activity, increase in the EC20 acetylcholine response, CHO-K1 hM4-Gqi5 cells, read-out: Human M4 EC50; for Emax: CHO-K1
Method: Human and rat M4 cDNAs, along with the chimeric G protein Gqi5, were transfected into Chinese hamster ovary (CHO-K1) cells purchased from the American Type Culture Collection using Lipofectamine2000. hM4-Gqi5 cells were grown in Ham's F-12 medium containing 10% heat-inactivated fetal bovine serum (FBS), 20 mM HEPES, 50 μg/mL G418 sulfate, and 500 μg/mL Hygromycin B. rM4-Ggi5 cells were grown in DiVEM containing 10% heat-inactivated FBS, 20 mM THEPES, 400 μμg/mL G418 sulfate, and 500 μμg/mL Hygromycin B.
For high throughput measurement of agonist-evoked increases in intracellular calcium, CHO-K1 cells stably expressing muscarinic receptors were plated in growth medium lacking G418 and hygromycin at 15,000 cells/20 μL/well in Greiner 384-well black-walled, tissue culture (TC)-treated, clear-bottom plates (VWR). Cells were incubated overnight at 37° C. and 5% CO2. The next day, cells were washed using an ELX 405 (BioTek) with assay buffer; the final volume was then aspirated to 20 μL. Next, 20 μL of a […] of Fluo-4/acetoxymethyl ester (Invitrogen, Carlsbad, CA), prepared as a 2.3 mM stock in DMSO and mixed in a 1:1 ratio with 10% (w/v) Pluronic F-127 and diluted in assay buffer, was added to the wells and the cell plates were incubated for 50 min at 37° C. and 5% C02. Dye was removed by washing with the ELX 405 and the final volume was aspirated to 20 μL. Compound master plates were formatted in an 11 point concentration-response curve (CRC) format (1:3 dilutions) in 100% DMSO with a starting concentration of 10 mM using a BRAVO liquid handler (Agilent). Test compound CRCs were then transferred to daughter plates (240 nL) using the Echo acoustic plate reformatter (Labcyte, Sunnyvale, CA) and then diluted into assay buffer (40 μL) to a 2× stock using a Thermo Fisher Combi (Thermo Fisher Scientific, Waltham, MA).
Calcium flux was measured using the Functional Drug Screening System (FDSS) 6000 or 7000 (Hamamatsu Corporation, Tokyo, Japan) as an increase in the fluorescent static ratio. Compounds were applied to cells (20 μL, 2×) using the automated system of the FDSS at 2-4 seconds into the protocol and the data were collected at 1 Hz. At 144 seconds, 10 μL of an EC20 concentration of the muscarinic receptor agonist acetylcholine was added (5×), followed by the addition of 12 μL of an EC80 concentration of acetylcholine at the 230 second time point (5×). Agonist activity was analyzed as a concentration-dependent increase in calcium mobilization upon compound addition. Positive allosteric modulator activity was analyzed as a concentration-dependent increase in the EC20 acetylcholine response. Antagonist activity was analyzed as a concentration-dependent decrease in the EC80 acetylcholine response. Concentration-response curves were generated using a four-parameter logistical equation in XLFit curve fitting software (IDBS, Bridgewater, NJ) for Excel (Microsoft, Redmond, WA) or Prism (GraphPad Software, Inc., San Diego, CA).
Compounds were synthesized as described above. Activity (EC50 and Emax) was determined in the mAChR M4 cell-based functional assay as described above and the data are shown in Table 2. The compound number corresponds to the compound numbers used in Table 1.

| Emax at 30 µM | EC50 | SMILES | Emax |
| --- | --- | --- | --- |
| 82% | 191 nM | Cc1c(C#N)nnc(N2CCc3ncc(Nc4cccnc4F)cc3C2)c1C [compound 119, 6-[3-[(2-fluoro-3-pyridyl)amino]-7,8-dihydro-5H-1,6-naphthyridin-6-yl]-4,5-dimethyl-pyridazine-3-carbonitrile] |  |
| 98% | 92 nM | Cc1nc(N2CCCC2)nc(N2CCc3ncc(Nc4ccnn4C)cc3C2)c1C [compound 277, 6-(5,6-dimethyl-2-(pyrrolidin-1-yl)pyrimidin-4-yl)-N-(1-methyl-1H-pyrazol-5-yl)-5,6,7,8-tetrahydro-1,6-naphthyridin-3-amine] |  |
| 91% | 101 nM | Cc1cc(F)ncc1-c1cnc2c(c1)CN(c1ncc(C(=O)NCc3ccncc3)cc1C)CC2 [compound 177, 6-[3-(6-fluoro-4-methyl-3-pyridyl)-7,8-dihydro-5H-1,6-naphthyridin-6-yl]-5-methyl-N-(4-pyridylmethyl)pyridine-3-carboxamide] |  |
| 63% | 2400 nM | COc1ccc(CNc2cnc3c(c2)CN(c2ncc(C#N)cc2C)CC3)cc1F [Example 5] |  |
| 102% | 25 nM | Cc1nc(Cl)c(C)c(N2CCc3ncc(N4CCCn5nccc54)cc3C2)n1 [compound 243, 6-(6-chloro-2,5-dimethylpyrimidin-4-yl)-3-(6,7-dihydropyrazolo[1,5-a]pyrimidin-4(5H)-yl)-5,6,7,8-tetrahydro-1,6-naphthyridine] |  |
| 94% | 90.5 nM | Cc1cc(C#N)cnc1N1CCc2ncc(Nc3ccccc3F)cc2C1 [Example 7] |  |
| 66% | 197 nM | Cc1c(C#N)nnc(N2CCc3ncc(Nc4c(F)cccc4Cl)cc3C2)c1C [Example 33] |  |
| 91% | 15 nM | Cc1cnccc1CNC(=O)c1cc(C)c(N2CCc3ncc(N4CCCn5nccc54)cc3C2)nn1 [Example 491, 6-(3-(6,7-dihydropyrazolo[1,5-a]pyrimidin-4(5H)-yl)-7,8-dihydro-1,6-naphthyridin-6(5H)-yl)-5-methyl-N-((3-methylpyridin-4-yl)methyl)pyridazine-3-carboxamide] |  |
| 66% | 616 nM | Cc1nc(Cl)c(C)c(N2Cc3cc(N4CCCn5nccc54)cnc3C(C)(C)C2)n1 [compound 250, 6-(6-chloro-2,5-dimethylpyrimidin-4-yl)-3-(6,7-dihydropyrazolo[1,5-a]pyrimidin-4(5H)-yl)-8,8-dimethyl-5,6,7,8-tetrahydro-1,6-naphthyridine] |  |
| 70% | 479 nM | Cc1c(C#N)nnc(N2CCc3ncc(-c4cc(F)cnc4Cl)cc3C2)c1C [compound 53, 6-[3-(2-chloro-5-fluoro-3-pyridyl)-7,8-dihydro-5H-1,6-naphthyridin-6-yl]-4,5-dimethyl-pyridazine-3-carbonitrile] |  |
| 76% | 144 nM | Cc1cc(C#N)cnc1N1CCc2ncc(-c3ccc(F)nc3)cc2C1 [Example 319, 6-(3-(6-fluoropyridin-3-yl)-7,8-dihydro-1,6-naphthyridin-6(5H)-yl)-5-methylnicotinonitrile] |  |
| 54% | 2680 nM | Cc1cc(F)ncc1-c1cnc2c(c1)CN(c1nnc(C#N)c(C)c1C)CC2 [Example 320, 6-(3-(6-fluoro-4-methylpyridin-3-yl)-7,8-dihydro-1,6-naphthyridin-6(5H)-yl)-4,5-dimethylpyridazine-3-carbonitrile] |  |
| 112% | 21 nM | [2H]C([2H])(NC(=O)c1cc(C)c(N2CCc3ncc(C(F)(F)F)cc3C2)nn1)c1ccncc1 [Example 505, 5-methyl-N-(pyridin-4-ylmethyl-d2)-6-(3-(trifluoromethyl)-7,8-dihydro-1,6-naphthyridin-6(5H)-yl)pyridazine-3-carboxamide] |  |
| 70% | 906 nM | [2H]C1([2H])Cc2ncc(Nc3ccncc3C)cc2C([2H])([2H])N1c1nnc(C#N)cc1C [Example 607, 5-methyl-6-(3-((3-methylpyridin-4-yl)amino)-7,8-dihydro-1,6-naphthyridin-6(5H)-yl-5,5,7,7-d4)pyridazine-3-carbonitrile] |  |
| 57% | 740 nM | Cc1cc(C#N)cnc1N1CCc2ncc(-c3cnn(C4CCCCC4)c3)cc2C1 [compound 99, 6-[3-(1-cyclohexylpyrazol-4-yl)-7,8-dihydro-5H-1,6-naphthyridin-6-yl]-5-methyl-pyridine-3-carbonitrile] |  |
| 93% | 211 nM | Cc1nc(Cl)c(C)c(N2CCc3ncc(-c4cnn(CC5CC5)c4)cc3C2)n1 [compound 194, 6-(6-chloro-2,5-dimethyl-pyrimidin-4-yl)-3-[1-(cyclopropylmethyl)pyrazol-4-yl]-7,8-dihydro-5H-1,6-naphthyridine] |  |
| 94% | 96.9 nM | Cc1cc(C#N)cnc1N1CCc2ncc(Oc3ccccc3F)cc2C1 [compound 180, 6-[3-(2-fluorophenoxy)-7,8-dihydro-5H-1,6-naphthyridin-6-yl]-5-methyl-pyridine-3-carbonitrile] |  |
| 67% | 2620 nM | Cc1ncc(CNC(=O)c2cnc(N3CCc4ncccc4C3)c(C)c2)s1 [compound 127, 6-(7,8-dihydro-5H-1,6-naphthyridin-6-yl)-5-methyl-N-[(2-methylthiazol-5-yl)methyl]pyridine-3-carboxamide] |  |
| 83% | 267 nM | Cc1noc(C)c1-c1cnc2c(c1)CN(c1nnc(C#N)c(C)c1C)CC2 [Example 297, 6-(3-(3,5-dimethylisoxazol-4-yl)-7,8-dihydro-1,6-naphthyridin-6(5H)-yl)-4,5-dimethylpyridazine-3-carbonitrile] |  |
| 54% | 1880 nM | Cc1cc(F)c(F)cc1-c1cnc2c(c1)CN(c1nnc(C#N)cc1C)CC2 [Example 596, 6-(3-(4,5-difluoro-2-methylphenyl)-7,8-dihydro-1,6-naphthyridin-6(5H)-yl)-5-methylpyridazine-3-carbonitrile] |  |
| 78% | 466 nM | Cc1nn(C)cc1-c1cnc2c(c1)CN(c1nc(NC3CC3)nc(C)c1C)CC2 [compound 272, N-cyclopropyl-4-(3-(1,3-dimethyl-1H-pyrazol-4-yl)-7,8-dihydro-1,6-naphthyridin-6(5H)-yl)-5,6-dimethylpyrimidin-2-amine] |  |
| 90% | 600 nM | Cc1cc(C#N)cnc1N1CCc2ncc(Oc3ccc(F)cc3F)cc2C1 [Example 310, 6-(3-(2,4-difluorophenoxy)-7,8-dihydro-1,6-naphthyridin-6(5H)-yl)-5-methylnicotinonitrile] |  |

| SMILES | Emax at 30 µM | EC50 | Emax |
| --- | --- | --- | --- |
| CNC(=O)c1cnc(N2CCc3ncccc3C2)c(C)c1 [compound 57, 6-(7,8-dihydro-5H-1,6-naphthyridin-6-yl)-N,5-dimethyl-pyridine-3-carboxamide] |  | ≥ 10000 nM | 63% |
| Cc1nc(Cl)c(C)c(N2Cc3cc(Br)cnc3C(C)(C)C2)n1 [compound 236, 3-bromo-6-(6-chloro-2,5-dimethylpyrimidin-4-yl)-8,8-dimethyl-5,6,7,8-tetrahydro-1,6-naphthyridine] |  | ≥ 10000 nM | 29% |
